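All cell lines were grown in 96-well plates and treated with compound for 48 hours. GI50 is the concentration that inhibits growth by half.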 The source made the active and inactive calls. No stated cut-off is given here; in the data, active = GI50 up to about 1.1 µM and inactive = higher.
How the values were obtained:
Assay in all cases: DTP human tumour cell line panel, 48 h
[1] = tested on: HT-29
[2] = tested on: SNB-19
[3] = tested on: NCI-H522
[4] = tested on: SR
[5] = tested on: K562
[6] = tested on: UACC-257
[7] = tested on: HOP-62
[8] = tested on: HL-60
[9] = tested on: HCT-15
[10] = tested on: SK-MEL-5
[11] = tested on: IGROV-1
[12] = tested on: RXF 393
[13] = tested on: SNB-78
[14] = tested on: U-251
[15] = tested on: KM-20L2
[16] = tested on: HOP-18
[17] = tested on: SN12C
[18] = tested on: NCI-H23
[19] = tested on: LOX IMVI
[20] = tested on: OVCAR-8
[21] = tested on: OVCAR-3
[22] = tested on: SK-MEL-2
[23] = tested on: NCI-H226
[24] = tested on: NCI-H460
[25] = tested on: A498
[26] = tested on: DMS-114
[27] = tested on: DMS-273
[28] = tested on: Malme-3M
[29] = tested on: SF-268
[30] = tested on: COLO 205
[31] = tested on: UO-31
[32] = tested on: OVCAR-5
[33] = tested on: SK-OV-3
[34] = tested on: A549
[35] = tested on: RPMI-8226
[36] = tested on: SW-620
[37] = tested on: DLD-1
[38] = tested on: OVCAR-4
[39] = tested on: HCT-116
[40] = tested on: M14
[41] = tested on: HCC 2998
[42] = tested on: UACC-62
[43] = tested on: LXFL 529
[44] = tested on: 786-0
[45] = tested on: SK-MEL-28
[46] = tested on: EKVX
[47] = tested on: CCRF-CEM
[48] = tested on: ACHN
[49] = tested on: SNB-75
[50] = tested on: HOP-92
[51] = tested on: SF-295
[52] = tested on: CAKI-1
[53] = tested on: MOLT-4
[54] = tested on: SF-539
[55] = tested on: M19-MEL
[56] = tested on: XF498
[57] = tested on: KM12
[58] = tested on: TK-10

Measured: GI50

CCC(C)CCOC(=O)c1ccc(/N=C\c2ccc(/C=N/c3ccc(C(=O)OCCC(C)CC)cc3)cc2)cc1 (stereo unspecified)
inactive: [1] > 100 µM | [2] > 100 µM | [3] > 100 µM | [4] > 100 µM | [5] > 100 µM | [6] > 100 µM | [7] > 100 µM | [8] > 100 µM | [10] > 100 µM | [11] > 100 µM | [12] > 100 µM | [13] > 100 µM | [14] > 100 µM | [15] > 100 µM | [16] > 100 µM | [17] > 100 µM | [18] > 100 µM | [19] > 100 µM | [20] > 100 µM | [21] > 100 µM | [22] > 100 µM | [23] > 100 µM | [24] > 100 µM | [25] > 100 µM | [26] > 100 µM | [27] > 100 µM | [28] > 100 µM | [29] > 100 µM | [30] > 100 µM | [31] 41.1 µM | [32] > 100 µM | [33] > 100 µM | [34] > 100 µM | [35] > 100 µM | [36] > 100 µM | [37] > 100 µM | [38] > 100 µM | [39] > 100 µM | [40] > 100 µM | [41] > 100 µM | [42] > 100 µM | [43] > 100 µM | [44] > 100 µM | [45] > 100 µM | [46] 62.2 µM | [47] > 100 µM | [48] > 100 µM | [49] > 100 µM | [50] > 100 µM | [51] > 100 µM | [52] > 100 µM | [53] > 100 µM | [54] > 100 µM
> 100 µM: [9]

CC(C)OP(=O)(OC(C)C)/C(I)=N/Nc1ccc([N+](=O)[O-])cc1
> 100 µM: [9]
inactive: [55] > 100 µM | [1] > 100 µM | [2] > 100 µM | [3] > 100 µM | [4] > 100 µM | [5] > 100 µM | [6] > 100 µM | [7] > 100 µM | [8] > 100 µM | [10] > 100 µM | [11] > 100 µM | [13] > 100 µM | [14] > 100 µM | [15] > 100 µM | [17] > 100 µM | [18] > 100 µM | [20] > 100 µM | [21] > 100 µM | [22] > 100 µM | [24] > 100 µM | [25] > 100 µM | [26] > 100 µM | [27] > 100 µM | [28] > 100 µM | [56] > 100 µM | [29] > 100 µM | [30] > 100 µM | [31] 98.4 µM | [32] > 100 µM | [33] > 100 µM | [34] > 100 µM | [35] > 100 µM | [57] > 100 µM | [36] > 100 µM | [58] > 100 µM | [37] > 100 µM | [38] > 100 µM | [39] > 100 µM | [40] > 100 µM | [41] > 100 µM | [42] > 100 µM | [43] > 100 µM | [45] > 100 µM | [46] > 100 µM | [47] > 100 µM | [48] > 100 µM | [49] > 100 µM | [50] > 100 µM | [51] > 100 µM | [52] > 100 µM | [53] > 100 µM | [54] > 100 µM

CCc1cc2c(c3[nH]ccc13)[C@@H](C)C[C@H]2C
14.4 µM: [9]
inactive: [55] 17.2 µM | [1] 19.7 µM | [3] 16.2 µM | [5] 21.6 µM | [6] 19.9 µM | [8] 21.8 µM | [10] 16.9 µM | [11] 19.4 µM | [12] 13.8 µM | [13] 16.4 µM | [14] 16.4 µM | [16] 18.4 µM | [17] 15.6 µM | [18] 17.8 µM | [19] 12.7 µM | [20] 19.7 µM | [21] 20 µM | [23] 16.4 µM | [24] 14.9 µM | [25] 15.6 µM | [26] 19.9 µM | [27] 18 µM | [28] 18.6 µM | [30] 19.9 µM | [31] 18.3 µM | [33] 30.5 µM | [34] 19.6 µM | [35] 20.1 µM | [57] 19.1 µM | [36] 19.8 µM | [58] 19.5 µM | [37] 16.4 µM | [39] 16 µM | [40] 17.2 µM | [41] 21.2 µM | [42] 16.9 µM | [43] 18 µM | [44] 15 µM | [45] 16.1 µM | [46] 20.7 µM | [47] 20.4 µM | [48] 16.7 µM | [49] 17.5 µM | [50] 16.2 µM | [51] 18.8 µM | [52] 15.8 µM | [53] 14.3 µM | [54] > 10 µM

CCc1ccccc1NC(=O)C1=C(C)NC(C)=C(C(=O)Nc2ccccc2CC)C1c1ccc2c(c1)OCO2
inactive: [55] 40.9 µM | [1] 31.9 µM | [2] 49.3 µM | [3] 24.1 µM | [5] 26.5 µM | [6] 30.9 µM | [7] 17.1 µM | [8] 16.9 µM | [10] 23.2 µM | [11] 29.4 µM | [12] 20 µM | [13] 34 µM | [14] 26.9 µM | [15] > 10 µM | [17] 41.2 µM | [18] 31.5 µM | [19] 24.4 µM | [20] 33.7 µM | [21] 22.5 µM | [22] 19.2 µM | [23] 24.3 µM | [24] 34.1 µM | [25] 25.1 µM | [26] 22.9 µM | [28] 25.3 µM | [56] 23 µM | [29] 25.2 µM | [30] 29 µM | [31] 18.5 µM | [32] 27.1 µM | [33] 30.2 µM | [34] 29.1 µM | [35] 14.5 µM | [57] 19.2 µM | [36] 28.9 µM | [58] 47.6 µM | [37] 22.7 µM | [38] 23.2 µM | [40] 26.2 µM | [41] 15.1 µM | [43] 31.3 µM | [44] 30.4 µM | [45] 32.6 µM | [46] 31.3 µM | [47] 19.5 µM | [48] 22.8 µM | [49] 23.7 µM | [50] 13.6 µM | [51] 33.3 µM | [52] 25.2 µM | [53] 15.4 µM | [54] 16.8 µM

CC[C@@]1(O)C[C@H](OC2CC(N(C)C)C(OC3CC(O)C(OC4CCC(=O)C(C)O4)C(C)O3)C(C)O2)c2c(cc3c(c2O)C(=O)c2c(O)cccc2C3=O)[C@H]1C(=O)OC (stereo partly specified)
active: [1] 0.0147 µM | [8] 0.0317 µM | [15] 0.0128 µM | [16] 0.0736 µM | [35] 0.0278 µM | [37] 0.0327 µM | [43] 0.00904 µM | [47] 0.0184 µM

— ChEMBL document CHEMBL1201862, “PubChem BioAssay data set” (2004)
